Test results: publication PMC9229991, “Development of Reduced Peptide Bond Pseudopeptide Michael Acceptors for the Treatment of Human African Trypanosomiasis” (Molecules, 2022)
Like-named read-outs stand apart in the source and are kept apart here.

Tests used:
[1] = biological target: T1, rhodesain (Trypanosoma brucei rhodesiense, UniProt Q95PM0); experiment: Rhodesain fluorogenic enzyme assay (Cbz-Phe-Arg-AMC substrate); assay type: biochemical, T. b. rhodesiense; settings: for Rhodesain kinac: pH 5.5, room temperature; for Rhodesain k2nd: k2nd = kinact/Ki; for inhibition at 100 µM: preliminary screening at 100 µM, read-out: Rhodesain % of inhibition at screening concentration
T1 construct: made in house
Experimental: All molecules were tested towards rhodesain utilizing fluorogenic assays in the presence of Cbz-Phe-Arg-AMC as substrate. […] Firstly, all the molecules were preliminarily screened at 100 µM (Figure 1A), and DMSO and E-64 were employed as the negative and positive control, respectively. Since SPR10–SPR19 passed the initial screening (% of inhibition > 80%), they were properly diluted, in accordance with what is reported in the literature.
Rhodesain was recombinantly expressed as previously described and Cbz-Phe-Arg-AMC (10 µM) was used as the fluorogenic substrate. The rhodesain-mediated hydrolysis released the fluorescent portion AMC, and fluorescence was measured at room temperature over a period of 30 min, using an Infinite 200 PRO microplate reader, and excitation (380 nm) and emission ([…]) filters were employed. The assay buffer was composed of 50 mM sodium acetate, 5 mM EDTA, 200 mM NaCl, and 0.005% Brij 35 with a pH equal to 5.5. Similarly, the enzyme buffer contained the same chemicals as the assay, with the exception of Brij, which was replaced by 1,4-dithiothreitol (DTT). All the SPR derivatives were solubilized in DMSO, which was also used as the negative control. E-64 protease inhibitor [76] was employed as the positive control. […] Each independent assay was performed twice and in duplicate, using 96 well-plates in a total volume of […]. The first order inactivation rate constants (kobs) were determined by means of nonlinear regression analysis of the progress curves (fluorescence (F) vs. time), and the equation F = A (1 − exp(−kobst)) + B was used. The obtained kobs values were fitted vs. the concentrations of tested inhibitors, and the equation kobs = kinact [I]/(Kiapp + [I]) provided the Kiapp and kinact values. Ki values were obtained using the equation Ki = Kiapp/(1 + [S]/Km), where Km is equal to 0.9 µM [77]. Grafit software was used for the nonlinear regression analysis to calculate kinact and Ki. The second-order rate constants k2nd were directly determined as k2nd = kinact/Ki.

[2] = system: T. b. brucei; settings: 24 h; cited from earlier work
[3] = biological target: T2, human Cathepsin L (hCatL) (Homo sapiens, UniProt P07711); design: method as in PMID 31714776; settings: unit printed in cell (PS1, Table 1); cited from earlier work
[4] = biological target: T1, rhodesain; design: method as in PMID 31714776; settings: lead compound; read-out: Rhodesain (TbrCatL) Ki; cited from earlier work
[5] = biological target: T2, human Cathepsin L (hCatL); experiment: hCatL fluorogenic enzyme assay (selectivity); assay type: biochemical; settings: for inhibition at 100 µM: screening concentration 100 µM; for Ki: Km 6.5 µM
Experimental: In order to evaluate the selectivity towards the protozoan cysteine protease, all the new Michael acceptors were assayed against human Cathepsin L (hCatL), which represents the homologous protease of rhodesain in humans.
Similarly to rhodesain, the activity towards hCatL was evaluated as reported in the literature. The biological evaluation towards hCatL was performed using the same buffers, reader, fluorogenic substrate, and positive and negative controls as described above for rhodesain, and the preliminary screening was performed at 100 µM. In this case too, each independent assay was performed twice and in duplicate. Differently from rhodesain, Km is equal to 6.5 µM [77].

[6] = system: HEK293 cells; experiment: Cytotoxicity assay, resazurin; assay type: cell-based; settings: 24 h
Experimental: HEK293 cells were cultured in high-glucose DMEM medium with L-glutamine, supplemented with 10% FCS, 20 U/mL penicillin, and 20 µg/mL streptomycin, at 37 °C and 5% CO2. For the cytotoxicity assay, the cells were seeded in 400 µL at 60,000 cells per well of poly-lysine-coated 48-well plates, and incubated for 24 h at 37 °C. Compound stocks were diluted in DMSO in nine consecutive 1:2 steps, resulting in a set of ten dilutions with concentrations from 7 mM to […]. From each dilution, 4 µL were added to the cells in the 48-well plates, in two separate triplicates. Addition of only DMSO served as control. The plates containing cells plus compound dilutions were incubated for 21 h at 37 °C. Subsequently, the medium in each well was exchanged to a medium with resazurin (15 µg/mL), resulting in a final concentration of […]. The plates were incubated for 3 h at 37 °C. Finally, 100 µL of the solution from each well of the 48-well plate was transferred into a 96-well plate, and fluorescence was measured (excitation: 540-14, emission: 590-20) using a CLARIOstar Plus plate reader (BMG Labtech).

[7] = system: T. b. brucei; experiment: Antitrypanosomal activity, ATPlite assay; assay type: cell-based, Trypanosoma brucei brucei; settings: 24 h
Experimental: The parasites used in this study were culture-adapted Trypanosoma brucei brucei of the cell line 449, descendants of the Lister strain 427 [79, 80]. The cells were grown in HMI-9 medium supplemented with 10% FCS, 50 U/mL penicillin, 50 µg/mL streptomycin, and 0.2 µg/mL phleomycin, at 37 °C and 5% CO2. EC50 values for the antitrypanosomal activity were determined using the ATPlite assay as previously described. Briefly, 10 mM compound stocks in DMSO were diluted to 333 µM in HMI-9 medium. This mixture was used to prepare nine further consecutive 1:2 dilutions in HMI-9 medium. Subsequently, 10 µL of diluted compound mixtures were added to 90 µL of media containing 2500 cell/mL in wells of a 96-well plate, in two separate triplicates. The highest DMSO concentration reached in compound plus cells mixture was 0.3%, and parasites treated with DMSO only were used as control. The cells were incubated for 24 h at 37 °C. Subsequently, 50 µL ATPlite 1 step solution (PerkinElmer) was added to each well and luminescence was measured using a CLARIOstar Plus plate reader (BMG Labtech).

[8] = system: L-6 rat myoblast cells; design: method as in PMID 21200426; settings: cytotoxicity; read-out: IC50 towards L-6 rat myoblast cells; cited from earlier work
[9] = Cbz-Phe-Arg-AMC 10 µM, pH 5.5, Km 0.9 µM, read-out: Rhodesain Ki

T1 sequence (Q95PM0 entry or part of it): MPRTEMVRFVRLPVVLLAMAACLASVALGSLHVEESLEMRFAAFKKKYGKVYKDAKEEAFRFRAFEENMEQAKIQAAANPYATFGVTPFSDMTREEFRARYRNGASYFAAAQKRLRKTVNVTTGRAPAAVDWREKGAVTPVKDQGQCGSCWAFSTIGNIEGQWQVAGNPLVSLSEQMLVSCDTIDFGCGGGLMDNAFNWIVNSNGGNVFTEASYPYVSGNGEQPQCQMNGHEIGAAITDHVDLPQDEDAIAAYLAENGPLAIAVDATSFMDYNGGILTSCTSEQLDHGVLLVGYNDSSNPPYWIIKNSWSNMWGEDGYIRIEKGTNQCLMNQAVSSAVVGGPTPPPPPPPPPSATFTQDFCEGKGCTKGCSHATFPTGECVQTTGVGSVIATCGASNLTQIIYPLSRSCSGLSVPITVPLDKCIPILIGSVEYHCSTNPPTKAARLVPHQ
T2 sequence (P07711 114-333): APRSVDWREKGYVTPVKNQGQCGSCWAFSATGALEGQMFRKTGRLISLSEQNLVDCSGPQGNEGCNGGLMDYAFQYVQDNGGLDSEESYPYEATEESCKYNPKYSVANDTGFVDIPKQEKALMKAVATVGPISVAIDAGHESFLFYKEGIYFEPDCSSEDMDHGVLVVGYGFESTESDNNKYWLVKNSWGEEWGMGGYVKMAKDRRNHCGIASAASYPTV

| SMILES | Ki [1, 9] | Rhodesain kinac ([1]; Cbz-Phe-Arg-AMC 10 µM) | Rhodesain k2nd [1] | inhibition at 100 µM [5] | inhibition at 100 µM [1] | also measured |
| --- | --- | --- | --- | --- | --- | --- |
| CC(C)C[C@H](NC(=O)[C@H]1O[C@@H]1C(=O)O)C(=O)NCCCCN=C(N)N [E-64, reference compound] | 33 ± 7 nM | 0.0085 ± 0.0008 min⁻¹ | 263000 ± 30000 M⁻¹ min⁻¹ |  |  |  |
| CSc1ccc(OCc2ncc([N+](=O)[O-])n2C)cc1 [Fexinidazole] |  |  |  |  |  | EC50 [2]: 2380 ± 880 nM |
| CC(=O)C=CC(CCc1ccccc1)NC(=O)C(Cc1ccccc1)NC(=O)c1ccc(F)cc1 (stereo not shown) [PS-1] |  | 0.00094 ± 0.00007 min⁻¹ | 8.384e+08 ± 1.066e+08 M⁻¹ min⁻¹ |  |  | Ki [3]: 1.9 ± 0.4 nM; EC50 [2]: 5100 ± 1000 nM; Ki [4]: 0.0011 nM |
| COC(=O)/C=C/[C@H](CCc1ccccc1)NC(=O)[C@H](Cc1ccccc1)NCc1ccccc1 [SPR10, Methyl (S,E)-4-((S)-2-(benzylamino)-3-phenylpropanamido)-6-phenylhex-2-enoate] | 5660 ± 300 nM | 0.0096 ± 0.0001 min⁻¹ | 1703 ± 68 M⁻¹ min⁻¹ | 16% | > 80% |  |
| COC(=O)/C=C/[C@H](CCc1ccccc1)NC(=O)[C@H](Cc1ccccc1)NCc1ccc([N+](=O)[O-])cc1 [SPR11, Methyl (S,E)-4-((S)-2-((4-nitrobenzyl)amino)-3-phenylpropanamido)-6-phenylhex-2-enoate] | 430 ± 60 nM | 0.0023 ± 0.0001 min⁻¹ |  |  | > 80% | Ki [5]: 36900 ± 2200 nM |
| COC(=O)/C=C/[C@H](CCc1ccccc1)NC(=O)[C@H](Cc1ccccc1)NCc1ccc(OC)cc1 [SPR12, Methyl (S,E)-4-((S)-2-((4-methoxybenzyl)amino)-3-phenylpropanamido)-6-phenylhex-2-enoate] | 4790 ± 1410 nM | 0.0062 ± 0.0014 min⁻¹ | 1314 ± 91 M⁻¹ min⁻¹ |  | > 80% | Ki [5]: 18500 ± 3900 nM |
| COC(=O)/C=C/[C@H](CCc1ccccc1)NC(=O)[C@H](Cc1ccccc1)NCc1ccccc1F [SPR13, Methyl (S,E)-4-((S)-2-((2-fluorobenzyl)amino)-3-phenylpropanamido)-6-phenylhex-2-enoate] | 1580 ± 620 nM | 0.0038 ± 0.0003 min⁻¹ | 2753 ± 885 M⁻¹ min⁻¹ | 10% | > 80% |  |
| COC(=O)/C=C/[C@H](CCc1ccccc1)NC(=O)[C@H](Cc1ccccc1)NCc1cccc(F)c1 [SPR14, Methyl (S,E)-4-((S)-2-((3-fluorobenzyl)amino)-3-phenylpropanamido)-6-phenylhex-2-enoate] | 1260 ± 80 nM | 0.0043 ± 0.0007 min⁻¹ | 3398 ± 328 M⁻¹ min⁻¹ | 35% | > 80% |  |
| COC(=O)/C=C/[C@H](CCc1ccccc1)NC(=O)[C@H](Cc1ccccc1)NCc1ccc(F)cc1 [SPR15, Methyl (S,E)-4-((S)-2-((4-fluorobenzyl)amino)-3-phenylpropanamido)-6-phenylhex-2-enoate] | 2640 ± 130 nM | 0.0041 ± 0.0002 min⁻¹ | 1552 ± 19 M⁻¹ min⁻¹ | 10% | > 80% |  |
| COC(=O)/C=C/[C@H](CCc1ccccc1)NC(=O)[C@H](Cc1ccccc1)NCc1ccc(F)cc1F [SPR16, Methyl (S,E)-4-((S)-2-((2,4-difluorobenzyl)amino)-3-phenylpropanamido)-6-phenylhex-2-enoate] | 220 ± 60 nM | 0.0014 ± 0.0001 min⁻¹ |  | 38% | > 80% | Cytotoxicity towards HEK293 cells: concentration up to which no relevant cytotoxicity was observed [6]: > 70 µM; EC50 ([7]; Trypanosoma brucei): 8700 ± 3000 nM |
| COC(=O)/C=C/[C@H](CCc1ccccc1)NC(=O)[C@H](Cc1ccccc1)NCc1cc(F)ccc1F [SPR17, Methyl (S,E)-4-((S)-2-((2,5-difluorobenzyl)amino)-3-phenylpropanamido)-6-phenylhex-2-enoate] | 460 ± 160 nM | 0.0024 ± 0.0006 min⁻¹ |  | 12% | > 80% |  |
| COC(=O)/C=C/[C@H](CCc1ccccc1)NC(=O)[C@H](Cc1ccccc1)NCc1c(F)cccc1F [SPR18, Methyl (S,E)-4-((S)-2-((2,6-difluorobenzyl)amino)-3-phenylpropanamido)-6-phenylhex-2-enoate] | 210 ± 10 nM | 0.0012 ± 0.0001 min⁻¹ |  | 26% | > 80% | Cytotoxicity towards HEK293 cells: concentration up to which no relevant cytotoxicity was observed [6]: > 70 µM; EC50 ([7]; Trypanosoma brucei): 7000 ± 1000 nM |
| COC(=O)C=CC(CCc1ccccc1)NC(=O)C(Cc1ccccc1)NCc1ccc(C(F)(F)F)cc1 (stereo not shown) [SPR19] |  | 0.0023 ± 0.0002 min⁻¹ |  | 45% | > 80% | Ki [1]: 410 ± 70 nM |
| COC(=O)/C=C/[C@H](CCc1ccccc1)NC(=O)[C@H](Cc1ccccc1)NC(=O)c1ccc(F)cc1 [SPR34, (S,E)-methyl 4-((S)-2-(4-fluorobenzamido)-3-phenylpropanamido)-6-phenylhex-2-enoate] | 5.8 ± 0.4 nM | 0.0050 ± 0.0003 min⁻¹ | 870,606 ± 1178 M^−1 min^−1 |  |  | Selectivity Index (SI) (Ki hCatL/rhodesain) [5]: 603; Ki [5]: 3500 ± 1100 nM; Cytotoxicity towards HEK293 cells: concentration up to which no relevant cytotoxicity was observed [6]: > 70 µM; EC50 [7]: 15800 ± 2000 nM; EC50 ([7]; Trypanosoma brucei): 16000 ± 2100 nM |
| Nc1nc(N)nc(Nc2ccc([As]3SCC(CO)S3)cc2)n1 (stereo not shown) [melarsoprol] |  |  |  |  |  | IC50 [8]: 3300 nM |
